Earlier results in US20080069886A1, “Spironolactone nanoparticles, compositions and methods related thereto” (JAGOTEC AG, priority 2001, published 2008).

## CC(=O)S[C@@H]1CC2=CC(=O)CC[C@]2(C)[C@H]2CC[C@@]3(C)[C@@H](CC[C@@]34CCC(=O)O4)[C@H]12 [Spironolactone]
  solubility in water: 2.8 mg/100 ml
